Earlier results as cited in US20170007537A1, “PHARMACEUTICAL COMPOSITIONS OF ASENAPINE” (HETERO RESEARCH FOUNDATION, priority 2014, published 2017).

Conditions: when swallowed; oral tablet formulation

absolute bioavailability: < 2%
Structure (SMILES): CN1C[C@H]2c3ccccc3Oc3ccc(Cl)cc3[C@@H]2C1.O=C(O)/C=C\C(=O)O (racemic) [asenapine, (3aRS,12bRS)-5-Chloro-2-methyl-2,3,3a,12b-tetrahydro-1Hdibenzo[2,3:6,7]oxepino[4,5-c]pyrrole(2Z)-2-butenedioate (1:1)]
